From patent publication US20050037975A1, “Method for treatment of glutamate related disorders” (priority 1997, published 2005) come the findings set out here.

Marks after values point to notes of the source that are not given here.

The test system of assay [1] is succinic semi-aldehyde dehydrogenase (SSA DH). Nature of the assay: In vitro inactivation of succinic semi-aldehyde dehydrogenase. It is filed as biochemical. The procedure:
To test whether the protective effect of DETC-MeSO in hyperbaric O2-induced convulsions in mice could be due to inhibition of succinic semi-aldehyde dehydrogenase (SSA DH), mechanistically related to ALDH2, the sensitivity of SSA DH to inactivation by DETC-MeSO was determined. Potentially, inhibition of SSA DH in brain could offset the build up of ammonia known to occur and produce more GABA. In vitro both ALDH2 and SSA DH are inactivated by DETC-MeSO at 47 M-1 s-1 and 300 M-1 s-1, respectively.

In assay [2] the target is T1, rat liver mitochondrial low Km ALDH (Rattus norvegicus, UniProt P11884).
T1 construct: differential centrifugation carried out to isolate the mitochondrial faction; from tissue; host or cells: liver mitochondria of male Sprague-Dawley derived rats
T1 sequence (P11884 20-519): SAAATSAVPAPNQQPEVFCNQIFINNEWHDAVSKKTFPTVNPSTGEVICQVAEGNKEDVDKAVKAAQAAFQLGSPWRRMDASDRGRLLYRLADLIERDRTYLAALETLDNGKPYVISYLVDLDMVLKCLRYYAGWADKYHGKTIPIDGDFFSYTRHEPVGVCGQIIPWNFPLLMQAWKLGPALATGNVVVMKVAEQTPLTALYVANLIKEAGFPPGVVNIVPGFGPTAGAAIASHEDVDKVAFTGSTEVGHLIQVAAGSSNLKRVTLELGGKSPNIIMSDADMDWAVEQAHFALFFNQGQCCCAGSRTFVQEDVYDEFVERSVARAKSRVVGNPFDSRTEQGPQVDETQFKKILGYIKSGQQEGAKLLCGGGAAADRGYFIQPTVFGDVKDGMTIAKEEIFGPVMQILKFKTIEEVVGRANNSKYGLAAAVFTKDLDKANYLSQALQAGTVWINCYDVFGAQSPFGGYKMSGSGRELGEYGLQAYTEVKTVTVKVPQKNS
Nature of the assay: Liver aldehyde dehydrogenase determined in vivo. The conditions noted are these: intraperitoneal (IP), liver taken eight hours later. As for the experimental part: To determine if a compound of formula (I) can inhibit aldehyde dehydrogenase activity in vivo, doses of DETC-Me SO (1.3 mg/kg, 2.6 mg/kg, 5.2 mg/kg, 10.3 mg/kg and 20.6 mg/kg), were administered to male Sprague Dawley derived rats weighing 200-400 g. The rats were bred from a resident colony maintained in the Animal Care Unit at the University of Kansas. Rats were maintained on a 12-hour lights cycle with access to food and water ad lib until the night before an experiment, at which time food was removed. Animals were fasted for 12 hours prior to drug administration.
All experiments were carried out in the morning. Rats were treated with the doses of DETC-Me SO or DETC-Me described above, which were dissolved in polyethylene glycol 200. Eight hours later, the rats were anesthetized with carbon-dioxide and then decapitated. The liver was quickly removed and the low Km aldehyde dehydrogenase determined. Control rats were treated with […] vehicle only, and each control data point also represents an average of four rats.
The liver from drug-treated and control rats was homogenized in 0.25 M sucrose and differential centrifugation was carried out to isolate the mitochondrial fraction. The mitochondria were solubilized with sodium deoxycholate, and mitochondrial low Km and total (high and low) aldehyde dehydrogenase activity determined by the method of S. O. C. Tottmar et al., cited above.

A further assay has as its system MetSOX-induced seizures. Nature of the assay: MetSOX-induced seizures in mice. It is filed as in vivo. The procedure:
Animals—Male Swiss Webster mice (20-30 g) or male Sprague-Dawley rats (250-300 g) were used. All that employed animals were conducted in strict compliance with the NIH guidelines on animal use and institutional regulations concerning animal experimentation. Animals were exposed to hyperbaric oxygen in a specify designed press chamber as previously described (M. D. Faiman et al., Biochem. Pharmacol., 20, 3049-3067 (1971); M. D. Faiman et al. Aerosp. Med.,45, 29032.(1974)). The time to first clonic-tonic seizure after brining animals to a final pressure of five atmospheres of 100% oxygen or after intraperitoneal injection of convulsants was noted by. criteria outlined previously (M. D. Faiman et al. (1971), supra M. D. Faiman et al. (1974), supra). Unless otherwise specified, the ability of DETC-MeSO to prevent seizures was tested by intraperitoneal injection of 5.2 mg/kg of DETC-MeSO 1-2 hours prior to bringing the animal to a final pressure of 5 atmospheres of 100% oxygen or intraperitoneal injection of N-methyl-D-asparate (NMA) (125 mg/kg) r L-methionine sulfoximine (MetSOX) (250 mg/kg). Evaluation of the statistics for whole animal experiments or for changes in brain glutamate binding after administration of DETC-MeSO was conducted by use of the program GraphPAD InStat from Graph PAD Software (San Diego, Calif.).

Another assay deals with T2, brain or liver SSA DH (Mus musculus, UniProt Q8BWF0).
T2 construct: with no effect on the levels of brain or liver SSA DH; from tissue; host or cells: brain or liver of treated animals
T2 sequence (Q8BWF0 36-523): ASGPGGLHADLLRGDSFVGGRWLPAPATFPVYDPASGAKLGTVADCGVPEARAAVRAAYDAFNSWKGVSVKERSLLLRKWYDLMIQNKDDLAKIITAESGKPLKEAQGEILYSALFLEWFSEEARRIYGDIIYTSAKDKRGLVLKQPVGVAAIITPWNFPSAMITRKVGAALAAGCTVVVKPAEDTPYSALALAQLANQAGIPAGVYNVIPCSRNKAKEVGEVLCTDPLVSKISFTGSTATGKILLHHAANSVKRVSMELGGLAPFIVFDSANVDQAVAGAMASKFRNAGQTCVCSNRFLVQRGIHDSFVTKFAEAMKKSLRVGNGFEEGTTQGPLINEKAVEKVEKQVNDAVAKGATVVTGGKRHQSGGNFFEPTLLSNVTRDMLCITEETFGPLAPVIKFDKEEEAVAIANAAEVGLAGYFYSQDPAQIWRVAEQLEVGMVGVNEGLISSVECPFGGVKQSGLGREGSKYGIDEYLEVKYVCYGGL
In words: In vivo effect on brain or liver SSA DH levels. The note with it: up to 100 mg/kg i.p.

For the molecule `CCN(CC)C(=O)[S+](C)[O-]` (stereo not drawn) [DETC-MeSO, S-Methyl-N,N-Diethylthiolcarbamate Sulfoxide], the “inactivation rate of SSA DH” value in assay [1] was 300 M⁻¹ s⁻¹. In addition, the “dose required to inhibit 50% of the low Km ALDH” value in assay [2] turned out to be 3.6 mg/kg. For the same molecule, in the assay with MetSOX-induced seizures, the “effect on time free of MetSOX seizures” value was “more than doubled”. Moreover, the “mean time to seizure” value in the assay with MetSOX-induced seizures (MetSOX 250 mg/kg, 5.2 mg/kg i.p. 1-2 hours prior, ± standard error) is 307 ± 60 min. In addition, the “number of animals that exhibited the effect/total number of animals in the group” value in the assay with MetSOX-induced seizures (MetSOX 250 mg/kg, observation six hours) is listed as “(6/8)^a”. Also, the “effect on the levels of brain or liver SSA DH” value at brain or liver SSA DH was “no effect”.
